Measured values published in patent publication US4824863A, “Antibiotic A80438” (Eli Lilly and Company, priority 1985, dated 1989).
Residues, ends and D or L forms follow the SMILES beside them.

Columns and labels:
[1] = tested on: coccidiosis; conditions: alone; Science 122, 244 (1955); cited from earlier work
[2] = tested on: Culture A80438 (Streptomyces bobili NRRL 15971); assay: Antibiotic sensitivity discs on seeded ISP No. 2 agar plates; conditions: sensitivity disc
[3] = tested on: S. bobili; conditions: published descriptions; cited from earlier work
[4] = tested on: A80438 (Streptomyces bobili NRRL 15971); assay: Streptomycin inhibition (taxonomic comparison); conditions: culture A80438
[5] = tested on: Culture A80438 (Streptomyces bobili NRRL 15971); assay: Resistance to lysozyme; type: cell-based
Procedure: Resistance to lysozyme was measured by methods recommended by Gordon and Barnett [R. E. Gordon and D. A. Barnett, "Resistance to Rifampin and Lysozyme of Strains of Some Species of Mycobacterium and Nocardia as a Taxonomic Tool", Int. J. Syst. Bacteriol. 27, 176-178 (1977)].

O=C(Nc1ccc([N+](=O)[O-])cc1)Nc1ccc([N+](=O)[O-])cc1 [4,4'-dinitrocarbanilide]
Anticoccidial activity [1]: exhibits anticoccidial activity

CO[C@H]1C[C@H](O[C@H]2[C@H](C)[C@@H](O[C@@H]3O[C@H](C)C[C@H](N(C)C)[C@H]3O)[C@@H](C)C[C@@]3(CO3)C(=O)[C@H](C)[C@@H](O)[C@@H](C)[C@@H](C)OC(=O)[C@@H]2C)O[C@@H](C)[C@@H]1O [oleandomycin]
Resistance/sensitivity of culture A80438 ([2]; 15 units): sensitive

[H]/N=C(/N)N[C@H]1[C@H](O)[C@@H](O)[C@H](O[C@@H]2O[C@@H](C)[C@](O)(C=O)[C@H]2O[C@@H]2O[C@@H](CO)[C@H](O)[C@@H](O)[C@@H]2NC)[C@@H](N/C(N)=N\[H])[C@@H]1O [streptomycin]
Streptomycin inhibition [3]: +
Resistance/sensitivity of culture A80438 ([2]; 10 μg): sensitive
Streptomycin inhibition [4]: +

CN[C@H](CC(C)C)C(=O)N[C@H]1C(=O)N[C@@H](CC(N)=O)C(=O)N[C@H]2C(=O)N[C@H]3C(=O)N[C@H](C(=O)N[C@H](C(=O)O)c4cc(O)cc(O)c4-c4cc3ccc4O)[C@H](O)c3ccc(c(Cl)c3)Oc3cc2cc(c3O[C@@H]2O[C@H](CO)[C@@H](O)[C@H](O)[C@H]2O[C@H]2C[C@](C)(N)[C@H](O)[C@H](C)O2)Oc2ccc(cc2Cl)[C@H]1O [vancomycin]
Resistance/sensitivity of culture A80438 ([2]; 30 μg): sensitive

CC(=O)OCC1=C(C(=O)O)N2C(=O)[C@@H](NC(=O)Cc3cccs3)[C@H]2SC1 [cephalothin]
Resistance/sensitivity of culture A80438 ([2]; 30 μg): resistant

CC[C@H](C)[C@H](N)C1=N[C@H](C(=O)N[C@@H](CC(C)C)C(=O)N[C@H](CCC(=O)O)C(=O)N[C@H](C(=O)N[C@H]2CCCCNC(=O)[C@H](CC(N)=O)NC(=O)[C@@H](CC(=O)O)NC(=O)[C@H](Cc3cnc[nH]3)NC(=O)[C@@H](Cc3ccccc3)NC(=O)[C@H]([C@@H](C)CC)NC(=O)[C@@H](CCCN)NC2=O)[C@@H](C)CC)CS1 [bacitracin] (HELM PEPTIDE1{[CC[C@H](C)[C@H](N)C1=N[C@H](C(=O)[*:2])CS1].L.[dE].I.K.[NCCC[C@@H](N[*:1])C(=O)[*:2]].I.[dF].H.[dD].N}$PEPTIDE1,PEPTIDE1,5:R3-11:R2$$$V2.0)
Resistance/sensitivity of culture A80438 ([2]; 10 units): sensitive

CCC[C@@H]1C[C@@H](C(=O)N[C@@H]([C@H]2O[C@H](SC)[C@H](O)[C@@H](O)[C@H]2O)[C@@H](C)O)N(C)C1 [lincomycin]
Resistance/sensitivity of culture A80438 ([2]; 2 μg): resistant

neomycin
Resistance/sensitivity of culture A80438 ([2]; 30 μg): sensitive

gentamicin
Resistance/sensitivity of culture A80438 ([2]; 10 μg): sensitive

CC1(C)S[C@@H]2[C@H](NC(=O)Cc3ccccc3)C(=O)N2[C@H]1C(=O)O [penicillin G]
Resistance/sensitivity of culture A80438 ([2]; 10 units): resistant

CO[C@H]1/C=C/O[C@@]2(C)Oc3c(C)c(O)c4c(O)c(c(/C=N/N5CCN(C)CC5)c(O)c4c3C2=O)NC(=O)/C(C)=C\C=C\[C@H](C)[C@H](O)[C@@H](C)[C@@H](O)[C@@H](C)[C@H](OC(C)=O)[C@@H]1C [rifampin]
Resistance/sensitivity of culture A80438 ([2]; 5 μg): sensitive

CN(C)C1C(=O)C(C(N)=O)=C(O)C2(O)C(=O)C3=C(O)c4c(O)cccc4C(C)(O)C3CC12 (stereo not shown) [tetracycline]
Resistance/sensitivity of culture A80438 ([2]; 30 μg): sensitive

NC[C@H]1O[C@H](O[C@H]2[C@H](O)[C@@H](O[C@H]3O[C@H](CO)[C@@H](O)[C@H](N)[C@H]3O)[C@H](N)C[C@@H]2N)[C@H](N)C[C@@H]1O [tobramycin]
Resistance/sensitivity of culture A80438 ([2]; 10 μg): sensitive

lysozyme
Resistance/sensitivity of culture A80438 to lysozyme [5]: sensitive
